The source of these data is patent publication US11655239B2 (SHANGHAI INSTITUTE OF MATERIAL MEDICA, CHINESE ACADEMY OF …, priority 2019, dated 2023).

The subject of test [1] is mouse model of BLM-induced lung injury. Put plainly: Histopathological evaluation of lung sections, H&E staining. The format is in vivo. Particulars: Effect example 4; mice; S15 30, 60, 90 mg/kg, Nintedanib 30 mg/kg, oral qd 12 days. The method, then: Experimental objective: This group of experiments aimed to investigate the therapeutic potential of the compound S15 in acute lung injury and inflammation induced by bleomycin (BLM).
Experimental grouping (8 mice per group):
Model group (BLM): the mice received BLM (1.7 U/kg) via intratracheal instillation;
Compound S15 group (S15): this group was divided into three dose groups, namely 30, 60 and 90 mg/kg;
Positive control group (Nintedanib): Nintedanib administration group;
Negative control group (Control): only saline was used.
1) Material acquisition: The fresh tissue was fixed in 4% paraformaldehyde for more than 24 hours. The tissue was removed from the fixative solution and trim the tissue at the target site. The trimmed tissue was marked and placed in the dehydration box for later use.
2) Dehydration: The dehydration box was put in the dehydrator and different concentration gradients of ethanol was used sequentially for dehydration. 75% ethanol (4 hours), 85% ethanol (2 hours), 90% ethanol (2 hours), 95% ethanol (1 hour), absolute ethanol I (30 minutes), absolute ethanol II (30 minutes), alcohol benzene (5-10 minutes), xylene I (5-10 minutes), xylene II (5-10 minutes), wax I (1 hour), wax II (1 hour), wax III (1 hour).
3) Embedment: The wax melted at high temperature was put into the embedding frame; before the wax was cooled and solidified, the tissue was taken out of the dehydration box, put into the embedding frame according to the requirements of the embedding surface, marked and cooled at −20° C. After completely solidified, the wax block was removed from the embedding frame and trimmed.
4) Section: The trimmed wax block was put on a paraffin microtome for sectioning. The section thickness was about 4 μm. The sections were floated on warm water at 40° C. of the flotation workstation and flatten. A glass slide was used to lift the tissue from the warm water, and put into a 60° C. oven for dryness. After the water was dried and the wax melted, the glass slide was taken out and stored at ambient temperature for later use. […]

Test [2] relates to pulmonary fibrosis induced by bleomycin in mice. Description: Active TGF-β1 in BALF (ELISA). In kind it is in vivo, mouse. Particulars: 90 mg/kg; reduced from 123 pg/ml in BLM group. The method, then: The expression level of active TGF-β1 in BALF was detected by using the TGF-β1 ELISA detection kit (Shanghai Wuhao Bio-Tech Co., Ltd). The steps are as follows:
1) 10 standard wells were set on the enzyme coated plate. After the standard was diluted, the volume in each well was 50 μl, and the concentration was 1800 ng/L, 1200 ng/L, 600 ng/L, 300 ng/L, 150 ng/L, respectively. The concentration was the same every two tubes.
2) Sample addition: a blank well (no sample and enzyme reagent) and a well for the sample to be tested were set, respectively. 40 μl of sample dilution solution was added to the well for the sample to be tested on the enzyme coated plate, and then 10 μl of the sample to be tested was added.
3) Incubation: the sample to be tested was sealed with a sealing film and then incubated at 37° C. for 30 minutes.
4) Solution preparation: the concentrated washing liquid (30 times (20 times of 48T)) was diluted 30 times (20 times of 48T) with distilled water for use.
5) Wash: the liquid was discarded and spun dry. Each well was filled with the washing liquid. After standing for 30 seconds, the washing liquid was discarded. This was repeated 5 times and pat dry. […]
10) Determination: zero setting was performed using a blank well within 15 minutes after the reaction was stopped, and the absorbance (OD value) of each well was measured in sequence at a wavelength of 450 nm.
In general terms: An ELISA detects its analyte on a solid surface through an enzyme-linked reagent.

For `O=C(Nc1cccc(C(F)(F)F)c1)c1ccc(C2CC2)c(-c2ccc3nc(Nc4cnn(C5CC5)c4)ncc3c2)c1` [Compound S15, 4-cyclopropyl-3-(2-((1-cyclopropyl-1H-pyrazol-4-yl)amino)quinazolin-6-yl)-N-(3-(trifluoromethyl)phenyl)benzamide], the “BLM-induced lung injury, H&E staining” value in test [1] is reported as “improved significantly”. Besides, the “active TGF-β1 in BALF” value in test [2] came out at 48 pg/mL.
